Patent US20210315893A1 (Galapagos NV, priority 2017, published 2021)

Key:
[1] = target: T1, human GPCR sphingosine 1-phosphate receptor 5 (Homo sapiens, UniProt Q9H228); experiment: S1PR5 selectivity Ca2+ flux assay (antagonist readout); format: cell-based; conditions: CHO cells overexpressing human S1PR5 and Gq, agonist at EC80 (20 nM), read-out: S1P5 EC50 (nM), S1P5 antagonist EC50
T1 construct: host or cells: CHO
In short: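 CHO cells stably coexpressing human S1PR5 and Gq were serum-starved, Fluo 8-loaded and preincubated 15 min at 37° C with compound. They were then stimulated at EC80 with an S1PR5-specific agonist, and calcium fluorescence was recorded for 3 min. Peak/baseline ratios were normalized to controls and fitted to a four-parameter IC50 equation.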

[2] = tested on: HFL-1 cells; experiment: IL8 assay in the presence of Human Serum Albumin; conditions: HFL1, read-out: HSA IL8 EC50
[3] = tested on: HFL-1 cells; experiment: IL-8 production assay (S1P induced IL-8); format: cell-based; conditions: Homo sapiens, HFL1; S1P (1 μM) induced IL-8 in HFL-1 cells, starvation medium without HSA; read-out: IL8 EC50
In short: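 HFL-1 human fetal lung fibroblasts were starved in F12K/1% FBS, then given compound for 1 h (10-point, 1/3 dilution, 30 μM top, 0.3% DMSO final). S1P was added at 1 μM final for 16–24 h at 37 °C, and secreted IL-8 in supernatant quantified by ELISA.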

[4] = target: T2, human GPCR sphingosine 1-phosphate receptor 2 (Homo sapiens, UniProt O95136); experiment: S1PR2 antagonist Ca2+ flux assay; format: cell-based; conditions: antagonist mode, CHO-S1PR2 cells, S1P at EC80, Ca2+ fluorescence; read-out: S1P2 EC50 (nM), S1P2 antagonist EC50
T2 construct: host or cells: CHO
In short: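 CHO cells stably expressing human S1PR2, serum-starved 1 h, Fluo8-loaded; compound-evoked Ca2+ fluorescence read 3 min (agonist mode), then after 15 min S1P at EC80 added and read 3 min (antagonist mode). Max/baseline fluorescence ratios normalised to vehicle and S1P EC100 or EC50 controls; EC50 derived.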

[5] = target: T3, S1PR2 (Homo sapiens, UniProt O95136); experiment: S1PR2 binding assay (competition with radioactively labeled S1P, SpA); conditions: membranes from stable cell line over expressing S1PR2, SpA beads; read-out: S1P2 EC50 (nM), S1PR2 binding EC50
T3 construct: expressed in transfected cells
In short: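 Competition with [3H]S1P for membranes from a stable S1PR2-overexpressing cell line, 20 μg/well, captured on PVT-WGA SPA beads, in 20 mM Tris pH 7.5, 10 mM MgCl2, 100 mM NaCl, 0.4% fatty-acid-free BSA, 1 mM Na3VO4. 2 h at room temperature, then centrifugation and scintillation counting.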

[6] = target: T4, human GPCR sphingosine 1-phosphate receptor 1 (Homo sapiens, UniProt P21453); experiment: S1PR1 selectivity Ca2+ flux assay (antagonist readout); format: cell-based; conditions: antagonist readout, CHO cells overexpressing human S1PR1 and Gq, S1P at EC80 (6 nM); read-out: S1P1 EC50 (nM), S1P1 antagonist EC50
T4 construct: host or cells: CHO
In short: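 CHO cells stably overexpressing human S1PR1, starved 1 h in 0.1% FAF BSA medium, then Fluo 8 dye-loaded. Compound added, then after 15 min at 37 °C, S1P-evoked Ca2+ flux recorded. Maximal signal/background ratio normalized to controls as % inhibition; IC50 from four-parameter logistic fit.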

T2 sequence (O95136 whole entry): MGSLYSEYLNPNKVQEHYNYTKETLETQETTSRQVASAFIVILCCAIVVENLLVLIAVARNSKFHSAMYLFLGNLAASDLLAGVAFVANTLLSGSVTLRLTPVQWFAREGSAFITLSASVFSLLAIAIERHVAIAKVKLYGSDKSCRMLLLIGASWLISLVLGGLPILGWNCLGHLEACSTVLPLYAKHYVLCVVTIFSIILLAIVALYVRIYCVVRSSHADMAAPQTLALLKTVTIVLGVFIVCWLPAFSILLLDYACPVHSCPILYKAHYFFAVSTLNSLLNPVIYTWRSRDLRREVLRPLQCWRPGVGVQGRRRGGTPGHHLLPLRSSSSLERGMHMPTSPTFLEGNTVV
T3 sequence (O95136 whole entry): as above
T1 sequence (Q9H228 whole entry): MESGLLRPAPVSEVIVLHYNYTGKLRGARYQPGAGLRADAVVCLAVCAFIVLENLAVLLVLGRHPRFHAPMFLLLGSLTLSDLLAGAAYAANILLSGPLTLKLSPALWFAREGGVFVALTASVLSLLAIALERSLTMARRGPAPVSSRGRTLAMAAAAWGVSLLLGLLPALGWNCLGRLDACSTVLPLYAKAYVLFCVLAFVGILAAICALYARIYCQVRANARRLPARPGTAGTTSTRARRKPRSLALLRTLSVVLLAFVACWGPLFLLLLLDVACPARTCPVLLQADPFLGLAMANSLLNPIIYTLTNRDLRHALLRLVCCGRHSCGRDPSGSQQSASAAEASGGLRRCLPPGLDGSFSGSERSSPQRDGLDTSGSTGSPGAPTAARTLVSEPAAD
T4 sequence (P21453 whole entry): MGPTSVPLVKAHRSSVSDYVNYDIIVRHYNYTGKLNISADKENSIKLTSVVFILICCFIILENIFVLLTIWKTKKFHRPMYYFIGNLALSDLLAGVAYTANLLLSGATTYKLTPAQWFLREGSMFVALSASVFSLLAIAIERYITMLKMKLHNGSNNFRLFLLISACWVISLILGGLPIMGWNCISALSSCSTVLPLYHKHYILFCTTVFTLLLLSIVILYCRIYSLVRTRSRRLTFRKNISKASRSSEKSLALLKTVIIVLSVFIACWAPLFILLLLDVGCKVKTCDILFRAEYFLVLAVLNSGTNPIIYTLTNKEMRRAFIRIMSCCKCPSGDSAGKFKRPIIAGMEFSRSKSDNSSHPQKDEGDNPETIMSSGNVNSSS

| Structure (SMILES) | EC50 [1] [nM] | EC50 [2] [nM] | EC50 [3] [nM] | EC50 [4] [nM] | EC50 [5] [nM] | EC50 [6] [nM] |
| --- | --- | --- | --- | --- | --- | --- |
| CCOc1cc2[nH]c(Cc3nn(CC(=O)N4CCOCC4)c(=O)c4ccccc34)nc2cc1C(F)(F)F [Compound 168, 4-[[6-ethoxy-5-(trifluoromethyl)-1H-benzimidazol-2-yl]methyl]-2-(2-morpholino-2-oxo-ethyl)phthalazin-1-one] | 19800 | 28.1 | 4.57 | 11.9 | 86.4 | ≥ 19800 |
| O=C(Cn1cc(Cc2nc3cc(OCC(F)F)c(Cl)cc3[nH]2)c2ccccc2c1=O)N1CCOCC1 [Compound 169, 4-[6-Chloro-5-(2,2-difluoro-ethoxy)-1H-benzoimidazol-2-ylmethyl]-2-(2-morpholin-4-yl-2-oxo-ethyl)-2H-isoquinolin-1-one] | 19800 | 400 | 48.7 | 19.9 | 375 | ≥ 19800 |
| CCOc1cc2[nH]c(Cc3nn(CC(=O)N4CCOCC4)c(=O)c4ccccc34)nc2cc1C#N [Compound 170, 6-ethoxy-2-[[3-(2-morpholino-2-oxo-ethyl)-4-oxo-phthalazin-1-yl]methyl]-1H-benzimidazole-5-carbonitrile] | 19800 | 137 | 10.6 | 42.5 | 112 | ≥ 19800 |
| CC(F)(F)COc1cc2[nH]c(Cc3nn(CC(=O)N4CCOCC4)c(=O)c4ccccc34)nc2cc1Cl [Compound 172, 4-[[5-chloro-6-(2,2-difluoropropoxy)-1H-benzimidazol-2-yl]methyl]-2-(2-morpholino-2-oxo-ethyl)phthalazin-1-one] | 19800 | 33.4 | 29.1 | 7.57 | 15.8 | ≥ 19800 |
| COCCOc1cc2[nH]c(Cc3nn(CC(=O)N4CCOCC4)c(=O)c4ccccc34)nc2cc1Cl [Compound 174, 4-[[5-chloro-6-(2-methoxyethoxy)-1H-benzimidazol-2-yl]methyl]-2-(2-morpholino-2-oxo-ethyl)phthalazin-1-one] | 19800 | 58.9 | 20.1 | 34.9 | 56.8 | ≥ 19800 |
| N#Cc1cc2[nH]c(Cc3nn(CC(=O)N4CCOCC4)c(=O)c4ccccc34)nc2cc1OCC(F)(F)F [Compound 175, 2-[[3-(2-morpholino-2-oxo-ethyl)-4-oxo-phthalazin-1-yl]methyl]-6-(2,2,2-trifluoroethoxy)-3H-benzimidazole-5-carbonitrile] | 19800 | 61.6 | 10.9 | 11.4 | 78.9 | ≥ 19800 |
| CN(C)C1CCN(C(=O)Cn2nc(Cc3nc4cc(OCC(F)F)c(C#N)cc4[nH]3)c3ccccc3c2=O)C1 (stereo not drawn) [Compound 176, 6-(2,2-difluoroethoxy)-2-[[3-[2-[3-(dimethylamino)pyrrolidin-1-yl]-2-oxo-ethyl]-4-oxo-phthalazin-1-yl]methyl]-3H-benzimidazole-5-carbonitrile] | 19800 | 618 | 116 | 489 | 386 | ≥ 19800 |
| C[C@@H]1CN(C(=O)Cn2nc(Cc3nc4cc(OCC(F)F)c(C#N)cc4[nH]3)c3ccccc3c2=O)C[C@H](C)O1 [Compound 177, 6-(2,2-difluoroethoxy)-2-[[3-[2-[(2S,6R)-2,6-dimethylmorpholin-4-yl]-2-oxo-ethyl)-4-oxo-phthalazin-1-yl]methyl]-3H-benzimidazole-5-carbonitrile] | 19800 | 120 | 18.6 | 57.1 | 124 | ≥ 19800 |
| N#Cc1cc2[nH]c(Cc3nn(CC(=O)NC4CCOC4)c(=O)c4ccccc34)nc2cc1OCC(F)F (stereo not drawn) [Compound 178, 2-[4-[[6-cyano-5-(2,2-difluoroethoxy)-1H-benzimidazol-2-yl]methyl]-1-oxo-phthalazin-2-yl]-N-THF-3-yl-acetamide] | 19800 | 504 | 160 | 118 | 188 | ≥ 19800 |
| O=C(Cn1nc(Cc2nc3cc(OCC(F)F)c(F)cc3[nH]2)c2c(c1=O)CCCC2)N1CCOCC1 [Compound 179, 4-[[5-(2,2-difluoroethoxy)-6-fluoro-1H-benzimidazol-2-yl]methyl]-2-(2-morpholino-2-oxo-ethyl)-5,6,7,8-tetrahydrophthalazin-1-one] | 19800 | 353 | 352 | 107 | 207 | ≥ 19800 |
| N#Cc1cc2nc(Cc3nn(CC(=O)N4CCC[C@H]4CO)c(=O)c4ccccc34)[nH]c2cc1OCC(F)F [Compound 198, 6-(2,2-difluoroethoxy)-2-[[3-[2-[(2S)-2-(hydroxymethyl)pyrrolidin-1-yl]-2-oxo-ethyl]-4-oxo-phthalazin-1-yl]methyl]-1H-benzimidazole-5-carbonitrile] | 19800 | 210 | 74.8 | 416 | 486 | ≥ 19800 |
| CC1(O)CCN(C(=O)Cn2nc(Cc3nc4cc(OCC(F)F)c(C#N)cc4[nH]3)c3ccccc3c2=O)C1 (stereo not drawn) [Compound 201, 6-(2,2-difluoroethoxy)-2-[[3-[2-(3-hydroxy-3-methyl-pyrrolidin-1-yl)-2-oxo-ethyl]-4-oxo-phthalazin-1-yl]methyl]-3H-benzimidazole-5-carbonitrile] | 19800 | 152 | 63.8 | 44.8 | 138 | 13200 |
| CN(C)C1CCN(C(=O)Cn2nc(Cc3nc4cc(C#N)c(OCC(F)F)cc4[nH]3)c3c(c2=O)CCCC3)C1 (stereo not drawn) [Compound 204, 6-(2,2-difluoroethoxy)-2-[[3-[2-[3-(dimethylamino)pyrrolidin-1-yl]-2-oxo-ethyl]-4-oxo-5,6,7,8-tetrahydrophthalazin-1-yl]methyl]-1H-benzimidazole-5-carbonitrile] | 19800 | 546 | 120 | 117 | 296 | ≥ 19800 |
| N#Cc1cc2nn(Cc3nn(CC(=O)NC4CCCC4)c(=O)c4ccccc34)cc2cc1OCC(F)F [Compound 208, 2-[4-[[6-cyano-5-(2,2-difluoroethoxy)indazol-2-yl)methyl]-1-oxo-phthalazin-2-yl]-N-cyclopentyl-acetamide] | 19800 | 3320 | 9950 | 10800 | 1510 | ≥ 19800 |
| N#Cc1cc2nn(Cc3nn(CC(=O)N4CCOCC4)c(=O)c4ccccc34)cc2cc1OCC1CC1 [Compound 209] | 19800 | 382 | 123 | 194 | 235 | ≥ 19800 |
| N#Cc1cc2[nH]c(Cc3nn(CC(=O)N4C[C@H](O)[C@@H](O)C4)c(=O)c4ccccc34)nc2cc1OCC(F)F [Compound 211, 6-(2,2-difluoroethoxy)-2-[[3-[2-[(3S,4S)-3,4-dihydroxypyrrolidin-1-yl]-2-oxo-ethyl]-4-oxo-phthalazin-1-yl]methyl]-3H-benzimidazole-5-carbonitrile] | 19800 | 159 | 46.5 | 39.7 | 142 | ≥ 19800 |
